Here are results for 12 compounds from patent US20200171030A1, “DUAL INHIBITORS OF ALK5 AND P38A MAP KINASE” (INTEGRAL BIOSCIENCES PRIVATE LIMITED, priority 2018, published 2020).

The test system of one assay is Panc-1. The assay can be described thus: Cell viability assay (resazurin, 96 hr) in Panc-1. In kind it is cell-based. Conditions: Homo sapiens; Panc-1 pancreatic cell line, 96 hr exposure; read-out: Panc-1_Cell Viability_IC50. The method, then:
(§1) Cell Viability Assay in MIA PaCa-2 and Panc-1
(§2) MIA PaCa-2 (ATCC® CRL-1420™) and Panc-1 (CRL-1469™), both pancreatic cell lines were seeded in their respective medium (DMEM, Cat #10569044 with 10% FBS, Cat #16000044; Gibco for Panc-1 and an additional 2.5% Horse Serum, Cat #16050122; Gibco for MIA PaCa-2) at a cell count of 3000 cells per 100 μl per well in a 96 well edge plate (167425; ThermoFisher). Cells were allowed to grow at 37° C. for 24 hr in 5% CO2 (culture conditions) in a Nuaire incubator (humidified). Serially diluted compounds (100 μl) were added to the culture plate 24 hr later and the cultures (MIA PaCa-2 and Panc-1) were further incubated in culture conditions for 96 hr. Experiment was terminated at the completion of 96 hr exposure to the drug by replacing the medium with 100 μl of 1 mM of resazurin (R7017; Sigma) prepared in culture medium and the plates were further incubated in culture conditions for 4 hr. Fluorescence was then measured using a multimodal plate reader (Biotek Synergy Neo) at an excitation wavelength of 535 nm and emission wavelength of 590 nm to obtain relative fluorescence units. Data analysis was done by subtracting the background fluorescence (only medium blank) value from each reading and then normalizing with the vehicle control (DMSO treated cells) to obtain percent survival/proliferation. Percent survival at different doses was used to calculate IC50 by fitting the curve to the “four-parameter variable slope logistic model” using Prism Graph Pad.

For the next assay, the target named is T1, TGFBR1 (ALK5) (Homo sapiens, UniProt P36897).
T1 sequence (P36897 34-503): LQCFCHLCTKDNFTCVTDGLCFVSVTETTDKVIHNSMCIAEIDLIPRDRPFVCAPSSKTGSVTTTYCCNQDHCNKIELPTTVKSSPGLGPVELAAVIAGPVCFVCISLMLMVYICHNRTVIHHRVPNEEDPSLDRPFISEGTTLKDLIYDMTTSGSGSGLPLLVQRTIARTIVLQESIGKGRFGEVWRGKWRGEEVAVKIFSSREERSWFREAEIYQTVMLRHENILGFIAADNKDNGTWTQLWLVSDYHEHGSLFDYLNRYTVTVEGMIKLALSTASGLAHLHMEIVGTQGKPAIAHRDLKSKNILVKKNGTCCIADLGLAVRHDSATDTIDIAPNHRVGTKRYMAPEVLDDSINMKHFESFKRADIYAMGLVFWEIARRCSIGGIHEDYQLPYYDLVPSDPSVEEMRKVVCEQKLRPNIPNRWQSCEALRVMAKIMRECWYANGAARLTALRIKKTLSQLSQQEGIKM
The experiment in a line: ALK5 kinase assay (LanthaScreen Terbium labeled TR-FRET). In kind it is biochemical. Conditions: for inhibition at 0.1 µM: 100 nM concentration of compound, read-out: Enzyme Activity TGFBR1 (ALK5) % Inhibition at 100 nM. On the procedure:
ALK5 Kinase Assay for IC50 Determination:
IC50 values of compounds against TGFβ kinase was determined by LanthaScreen™ Terbium Labeled TR-FRET assay. Kinase assays were performed in IX kinase buffer (# PV6135, Invitrogen, Life Technologies Grand Island, N.Y.) where total reaction volume was 10 μL in low-volume 384-well plates (#4511,Corning). Serially diluted compounds (3-fold) were incubated with TGFβ kinase (6 nM) for 10 min, following which a mixture of ATP (10 μM) (# A1852, Sigma, St-Louis, Mo.) and fluorescent-PolyGT substrate (200 nM) (# PV3610, Invitrogen, Life Technologies Grand Island, N.Y.) was added and incubated in dark at room temperature for 1 h. After 1 h, 10 μL stop solution containing Terbium labeled antibody (4 nM) (# PV3529, Invitrogen, Life Technologies Grand Island, N.Y.) and EDTA (# E5134, Sigma, St-Louis, Mo.) (20 mM) in TR-FRET dilution buffer (# PV3574, Invitrogen, Life Technologies Grand Island, N.Y.) was added. Readings were taken in a Synergy Neo Plate reader (BioTek, Winooski) at single excitation of 340 nm and Dual emission at 495 nm and 520 nm respectively.
The % activity of test samples was calculated as (Sample−Min)×100/(Max−Min). [Max: DMSO control, complete reaction with enzyme with DMSO and Min: No enzyme with DMSO]. Percent inhibition (100-% activity) was fitted to the “four-parameter logistic model” in XLfit for determination of IC50 values.
(Time-resolved FRET reads energy transfer from a long-lived donor to a nearby acceptor.)

The test system of the next assay is MIA PaCa-2. The experiment in a line: Cell viability assay (resazurin, 96 hr) in MIA PaCa-2. The assay is classed as cell-based. Conditions: Homo sapiens; MIA PaCa-2 pancreatic cell line, 96 hr exposure; read-out: MiaPaCa-2_Cell Viability_IC50. The method, then: as §1, §2
In general terms: The colour change of resazurin is a common sign of viable cells or microbes.

In the next assay the target is T2, MAPK14/p38α kinase (Homo sapiens, UniProt Q16539).
T2 construct: purchased ThermoFisher PV3304
The assay can be described thus: MAPK14/p38α kinase assay (LanthaScreen TR-FRET). The note with it: for inhibition at 0.1 µM: 100 nM concentration of compound; for IC50: Table 3, read-out: IC50 (P38 alpha). The assay is classed as biochemical. The method, then:
MAPK14/p38α Kinase Assay for IC50 Determination:
IC50 values of compounds against MAPK14/P38α kinase were determined by Lanthascreen based TR-FRET assay. Kinase reactions were performed in a 10 μL volume in low-volume 384-well plates. The concentration of substrate was maintained at 400 nM in the assay, and the kinase reaction buffer (1×; Cat # PV3189, ThermoFisher) consisted of 50 mM HEPES pH 7.5, 0.01% BRIJ-35, 10 mM MgCl2, and 1 mM EGTA. Serially diluted compounds (3-fold) in DMSO (0.5% in final reaction) were incubated with cocktail of MAPK14/p38α kinase (20 ng/ml; Cat # PV3304, ThermoFisher), Substrate GFP-ATF2 (19-96), (0.4 μM; Cat # PV4445, ThermoFisher), ATP (90 μM; Cat # PV3227, ThermoFisher) and buffer. Kinase reactions were allowed to proceed for 1 hour at room temperature before EDTA (10 mM; Cat # P2825, ThermoFisher) and LanthaScreen™ Tb-antipATF2 (pThr71) Antibody (2 nM; Cat # PV4451, ThermoFisher) in TR-FRET dilution buffer (IX; Cat # PV3574, ThermoFisher) were added. The plate was allowed to incubate at room temperature for 30 minutes before being read on a BMG Pherastar plate reader using the LanthaScreen™ filter block for LanthaScreen™ TR-FRET.
The resulting TR-FRET emission ratio was plotted against the concentration of inhibitor, and the data was fit to a sigmoidal dose-response curve with a variable slope. The IC50 for the inhibitor was calculated from the curve.

The mark [1] stands for this setting: read-out: Enzyme Activity MAPK14 (p38 alpha) % Inhibition at 100 nM.
Where [2] appears, read: Table 4, read-out: Enzyme Activity MAPK14 (p38alpha) % Inh at 100 nM.

The structures appear in SMILES notation. Structures can show the parent of a compound that is named as a salt. Where two headings read alike, the source gives them in different places. Some results are limits rather than exact numbers.

T2 sequence (Q16539 whole entry): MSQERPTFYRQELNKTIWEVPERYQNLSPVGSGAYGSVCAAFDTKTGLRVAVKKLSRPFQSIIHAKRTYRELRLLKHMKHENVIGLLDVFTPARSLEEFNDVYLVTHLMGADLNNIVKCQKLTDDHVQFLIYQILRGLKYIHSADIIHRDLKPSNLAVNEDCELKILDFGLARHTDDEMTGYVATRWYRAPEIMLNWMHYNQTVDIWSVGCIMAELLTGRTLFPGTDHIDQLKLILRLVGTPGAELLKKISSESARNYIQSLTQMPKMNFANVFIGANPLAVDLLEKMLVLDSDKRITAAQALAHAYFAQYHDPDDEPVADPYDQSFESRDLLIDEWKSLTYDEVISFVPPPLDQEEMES

For `CC(C)c1cnc(-c2ccc(F)cc2)nc1Nc1ccnc2[nH]cc(N3CCNCC3C)c12` (stereo not drawn) [Compound No. 4, N-(2-(4-fluorophenyl)-5-isopropylpyrimidin-4-yl)-3-(2-methylpiperazin-1-yl)-1H-pyrrolo[2,3-b]pyridin-4-amine hydrochloride], the IC50 worked out at 1880 nM with Panc-1 and 1540 nM in the assay on MIA PaCa-2. The inhibition at 0.1 µM at TGFBR1 (ALK5) amounted to 94%; at MAPK14/p38α kinase (setting [1]), 72%.

Consider `CC(C)c1cnc(-c2ccc(F)cc2)nc1Nc1ccnc2[nH]cc(N3CCOCC3)c12` [Compound No. 5, N-(2-(4-fluorophenyl)-5-isopropylpyrimidin-4-yl)-3-morpholino-1H-pyrrolo [2,3-b] pyridin-4-amine hydrochloride], for which the IC50 in the assay with Panc-1 and in the assay with MIA PaCa-2 was > 30000 nM each time. The inhibition at 0.1 µM at TGFBR1 (ALK5) stood at 88%; at MAPK14/p38α kinase (setting [1]), 7%.

In the case of `CC(C)c1cnc(-c2ccc(F)cc2)nc1Nc1ccnc2[nH]cc(-n3cncn3)c12` [Compound No. 6, N-(2-(4-fluorophenyl)-5-isopropylpyrimidin-4-yl)-3-(1H-1,2,4-triazol-1-yl)-1H-pyrrolo [2,3-b] pyridin-4-amine hydrochloride], the IC50 in the assay with Panc-1 is 645 nM; with MIA PaCa-2, 655 nM. Moreover, the inhibition at 0.1 µM on TGFBR1 (ALK5) was determined as 97%; on MAPK14/p38α kinase (setting [1]), 0%.

As to `CC(C)c1cnc(-c2ccc(F)cc2)nc1Nc1ccnc2[nH]cc(N3CCNC[C@@H]3C)c12` [Compound No. 7, N-(2-(4-fluorophenyl)-5-isopropylpyrimidin-4-yl)-3-(2-methylpiperazin-1-yl)-1H-pyrrolo [2,3-b] pyridin-4-amine hydrochloride], the IC50 with Panc-1 is 2700 nM; on TGFBR1 (ALK5) (Table 3, read-out: IC50 (ALK5)) it was 155 nM; with MIA PaCa-2, 2440 nM; on MAPK14/p38α kinase, 42 nM.

In the case of `CC(C)c1cnc(-c2ccc(F)cc2)nc1Nc1ccnc2[nH]cc(N3CCNC[C@H]3C)c12` [Compound No. 8, N-(2-(4-fluorophenyl)-5-isopropylpyrimidin-4-yl)-3-(2-methylpiperazin-1-yl)-1H-pyrrolo [2,3-b] pyridin-4-amine hydrochloride], the IC50 in the assay on Panc-1 was > 30000 nM; on TGFBR1 (ALK5) (Table 3, read-out: IC50 (ALK5)), 95 nM; with MIA PaCa-2, > 30000 nM; at MAPK14/p38α kinase, 61 nM.

On to `CC(C)c1cnc(-c2ccc(F)cc2)nc1Nc1ccnc2[nH]cc(N3CCN[C@H](C)C3)c12` [Compound No. 9, (R)—N-(2-(4-fluorophenyl)-5-isopropylpyrimidin-4-yl)-3-(3-methylpiperazin-1-yl)-1H-pyrrolo[2,3-b]pyridin-4-amine hydrochloride], for which the IC50 was determined as 3280 nM in the assay with Panc-1; 103 nM at TGFBR1 (ALK5) (Table 4, read-out: ALK5 IC50); 3530 nM in the assay with MIA PaCa-2. On MAPK14/p38α kinase (setting [2]), the inhibition at 0.1 µM came out at 52%.

Consider `CC(C)c1cnc(-c2ccc(F)cc2)nc1Nc1ccnc2[nH]cc(N3CCNC(=O)C3)c12` [Compound No. 10, 4-(4-(2-(4-fluorophenyl)-5-isopropylpyrimidin-4-ylamino)-1H-pyrrolo [2,3-b]pyridin-3-yl) piperazin-2-one formate], for which the IC50 in the assay on Panc-1 was 2730 nM; at TGFBR1 (ALK5) (Table 4, read-out: ALK5 IC50) it was 303 nM; in the assay on MIA PaCa-2, 3460 nM. In addition, the inhibition at 0.1 µM on MAPK14/p38α kinase (setting [2]) came to 28%.

`CC(C)c1cnc(-c2ccc(F)cc2)nc1Nc1ccnc2[nH]cc(N3CCN[C@@H](C)C3)c12` [Compound No. 11, (S)—N-(2-(4-fluorophenyl)-5-isopropylpyrimidin-4-yl)-3-(3-methylpiperazin-1-yl)-1H-pyrrolo[2,3-b]pyridin-4-amine hydrochloride]: the IC50 with Panc-1 was determined as 2820 nM; on TGFBR1 (ALK5) (Table 4, read-out: ALK5 IC50) it was 147 nM; in the assay with MIA PaCa-2, 2040 nM. On MAPK14/p38α kinase (setting [2]), the inhibition at 0.1 µM was determined as 18%.

Turning to `CC(C)c1cnc(-c2ccc(F)cc2)nc1Nc1ccnc2[nH]cc(N3CCC(C(N)=O)CC3)c12` [Compound No. 12, 1-(4-((2-(4-fluorophenyl)-5-isopropylpyrimidin-4-yl)amino)-1H-pyrrolo[2,3-b]pyridin-3-yl)piperidine-4-carboxamide formic acid], the IC50 in the assay on Panc-1 came out at 2600 nM; at TGFBR1 (ALK5) (Table 4, read-out: ALK5 IC50), 1170 nM; with MIA PaCa-2, 1780 nM. The inhibition at 0.1 µM on MAPK14/p38α kinase (setting [2]) is 37%.

Turning to `CC(C)c1cnc(-c2ccc(F)cc2)nc1Nc1ccnc2[nH]cc(C(=O)C(N)=O)c12` [Compound No. 17, 2-(4-((2-(4-fluorophenyl)-5-isopropylpyrimidin-4-yl)amino)-1H-pyrrolo[2,3-b]pyridin-3-yl)-2-oxoacetamide hydrochloride], the IC50 is > 30000 nM with Panc-1; > 5000 nM on TGFBR1 (ALK5) (Table 3, read-out: IC50 (ALK5)); 765 nM with MIA PaCa-2; 309 nM on MAPK14/p38α kinase.

On to `CNC(=O)C(=O)c1c[nH]c2nccc(Nc3nc(-c4cc(Cl)ccc4F)ncc3C(C)C)c12` [Compound No. 18, 2-(4-((2-(5-chloro-2-fluorophenyl)-5-isopropylpyrimidin-4-yl)amino)-1H-pyrrolo[2,3-b]pyridin-3-yl)-N-methyl-2-oxoacetamide hydrochloride], for which the IC50 was > 30000 nM in the assay on Panc-1; > 5000 nM on TGFBR1 (ALK5) (Table 3, read-out: IC50 (ALK5)); > 30000 nM with MIA PaCa-2; 349 nM on MAPK14/p38α kinase.

In the case of `CC(C)c1cnc(-c2ccc(F)cc2)cc1Nc1ccnc2[nH]cc(C(=O)C(N)=O)c12` [Compound No. 19, 2-(4-((2-(4-fluorophenyl)-5-isopropylpyridin-4-yl)amino)-1H-pyrrolo[2,3-b]pyridin-3-yl)-2-oxoacetamide hydrochloride], the IC50 in the assay with Panc-1 came out at 23200 nM; at TGFBR1 (ALK5) (Table 3, read-out: IC50 (ALK5)), 278 nM; in the assay with MIA PaCa-2, 15500 nM; on MAPK14/p38α kinase, 1760 nM.
